Assay results: patent publication US20120302530A1, “23-HYDROXY-BETULINIC ACID DERIVATIVES, PREPARATION METHODS AND USES THEREOF” (priority 2009, published 2012)

Legend:
[1] = Acute toxicity of zhangnan-5 to mice upon feeding; type: in vivo, BlebC mice
Text: (6) Research on the acute toxicity of compound zhangnan-5 to mice upon feeding the drug: (see Gol'dberg L E, Stepanova E S, Vertogradova T P, Shevniuk L A, Shepelevtseva G. Preclinical toxicological study of the new antibiotic eremomycin. Its acute toxicity for laboratory animals, Antibiot Med Biotekhnol. 1987, 32 (12): 910-5).
Two groups of 8-week old BlebC mice are taken, and each group has 10 mice (five male and five female). The mice are fed with the compound zhangnan-5 (prepared with corn oil or carrier) in single dose 500 mg/kg and in multi-dose 200 mg/kg (QDX15), respectively. Then, observation is made to the mice for 1 week and 4 week, respectively. The mice are weighted every other day. When the test is over, the tested mice are killed for pathological analysis. […] Thus, the compound zhangnan-5 has great potential to be developed as a new antineoplastic drug of wide spectrum. The compound zhangnan-5 can be used as drug substance of anti-tumor drugs, preferably used as drug substance of anti-malignant solid tumor drugs. The compound zhangnan-5 can also be used with drug carrier and/or excipient to make anti-tumor drug. The drug carrier and/or excipient can be, for example, corn oil, sodium carboxymethylcellulose, and the like.

[2] = Pharmacokinetics of zhangnan-5 in mice; type: in vivo; details: both sexes, BlebC, mouse, oral, 100 mg/kg single dose, plasma, average +/− standard deviation
Protocol: (5) Pharmacokinetics research of the compound zhangnan-5 in mice body: (see Singh S S, Shah H, Gupta S, Jain M, Sharma K, Thakkar P, Shah R. Liquid chromatography—electrospray ionisation mass spectrometry method for the determination of escitalopram in human plasma and its application in bioequivalence study. J Chromatogr B Analyt Technol Biomed Life Sci. 2004 Nov. 25; 811 (2):209-15).
Four 8-week old BlebC mice (two male and two female) are used, feeding with the compound zhangnan-5 of 100 mg/kg for single dose. At 0.5, 1, 3, 6, 12, 24, 48, and 72 hours upon mouth feeding the drug, blood is collected via vena ophthalmica and blood plasma is made, to determine the plasma concentration of the given compound zhangnan-5.

[3] = system: human malignant glioma cell U-251; test: Human tumor xenograft model in nude mice; type: in vivo, nude mice (nu/nu); details: U-251 xenograft, 30 mg/kg oral, 5 times a week for 3 weeks, end point 4 weeks; low = active
Text: (§1) (7) Drug administration of human tumor xenograft model and nude mice tumor transplantation model: (see Harrison S D Jr; Growth of human tumor cells in athymic mice; J Natl Cancer Inst. 1991 Oct. 16; 83 (20): 1509).
(§2) T cell deficiency nude mice (nu/nu) (male, 6-week old) are bought from Charles River Lab, and are raised in pathogen-free environment according to guidelines of animal raising and using committee of university. The number of […] LNCaP, NCI-H23, HCT-116, G-361 and U-251 cells are suspended in 0.2 ml HBSS or matrigel (50: 50, v/v), and are subcutaneously vaccinated to the side abdomen region of the mice. When the average diameters of the tumors are 7˜8 mm, the mice having tumor size of 100˜200 mm3 are chosen, and are given with treatment group of compound zhangnan-5 prepared with corn oil and are only given with control group of empty carrier (corn oil), respectively.
(§3) In the oral feeding test, the compound zhangnan-5 (30 mg/kg) is dissolved in corn oil. Each day the mice are tube fed with 200 μl drug liquid in single dose (prepared with corn oil, containing 0.75 mg compound zhangnan-5) for 5 times a week and for 3 weeks. The control group is given placebo (corn oil) according to same method. The mice are raised separately, and are allowed to self-help feeding.
(§4) The tumor is measured in two vertical directions every 3˜4 days.

[4] = system: human colon cancer cell HCT-116; test: Human tumor xenograft model in nude mice; type: in vivo, nude mice (nu/nu); details: HCT-116 xenograft, 30 mg/kg oral, 5 times a week for 3 weeks, end point 4 weeks; low = active
Text: as §1, §2, §3, §4

[5] = system: human melanoma cell G-361; test: Human tumor xenograft model in nude mice; type: in vivo, nude mice (nu/nu); details: G-361 xenograft, 30 mg/kg oral, 5 times a week for 3 weeks, end point 4 weeks; low = active
Text: as §1, §2, §3, §4

[6] = system: human prostate cancer cell LnCAP; test: Human tumor xenograft model in nude mice; type: in vivo, nude mice (nu/nu); details: 30 mg/kg oral, 5 times a week for 3 weeks, end point 4 weeks, low = active
Text: as §1, §2, §3, §4

[7] = system: human lung cancer cell NCI-H23; test: Human tumor xenograft model in nude mice; type: in vivo, nude mice (nu/nu); details: 30 mg/kg oral, 5 times a week for 3 weeks, end point 4 weeks, low = active
Text: as §1, §2, §3, §4

## C=C(C)C1CCC2(C(=O)O)CCC3(C)C(CCC4C5(C)CCC(=O)C(C)(CO)C5CCC43C)C12 (centres unmarked) [zhangnan-5]
[1]; fed, multi-dose 200 mg/kg (QDX15), observed 4 week
  toxicity, multi-dose: no toxicity is observed
[1]; fed, single dose 500 mg/kg, observed 1 week
  acute toxicity: no toxicity is observed
[1]; single dose 500 mg/kg and multi-dose 200 mg/kg (QDX15)
  mortality: no single death
[2]
  Cmax: 65 µM
  Tmax: 1.42 h
[2]; read-out: T½ (converted)
  half-life: 11.5 h
[3]
  T/C of relative tumor volume (treated/control × 100): 12.5%
[4]
  TGI (T/C×100 of relative tumor volume): 6.9%
[5]
  TGI (T/C×100 of relative tumor volume): 10.8%
[6]
  T/C of relative tumor volume (%): 5%
[7]
  TGI (T/C×100 of relative tumor volume): 0%
